Where a SMILES comes first, the peptide text is derived from it. The star is where a group is joined. Cbz = O=C(OCc1ccccc1)*
Columns and labels:
frataxin [1] = biological target: T1, frataxin (Homo sapiens, UniProt Q16595); assay: Frataxin accumulation in HEK-293 Flp-In cells stably expressing frataxin 1-210 (WB, FACS); assay type: cell-based; design: HEK-293 Flp-In cells stably transfected with frataxin^1-210; expressed in transfected cells; conditions: HEK-293 Flp-In frataxin 1-210
T1 sequence (Q16595 42-210): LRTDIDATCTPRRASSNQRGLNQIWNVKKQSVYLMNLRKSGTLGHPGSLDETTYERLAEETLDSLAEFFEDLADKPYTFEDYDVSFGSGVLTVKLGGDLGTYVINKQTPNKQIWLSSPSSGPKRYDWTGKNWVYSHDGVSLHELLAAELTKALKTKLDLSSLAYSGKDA
Procedure: (§1) Human embryonic kidney HEK-293 cells and Hela cells were maintained in DMEM supplemented with 10% FBS. HEK-293 were transfected with the calcium/phosphate precipitation method, using 20 μg total DNA (10 μg pIRES-frataxin and 10 μg HA-Ub, or corresponding empty vectors) on 10 cm dishes. Hela cells were transfected using Lipofectamine 2000 reagents (Invitrogen), according to manufacturer's instructions. Where indicated, the day after transfection, cells were treated for 16 h with 10 μM proteasome inhibitors, MG132 or Lactacystin, or 50 ng/ml DUB inhibitor Ubiquitin-Aldehyde. Flp-In-HEK-293 cells (Invitrogen) are HEK-293 variants allowing the stable and isogenic integration and expression of a transfected gene. Flp-In-HEK-293 cells were maintained in DMEM supplemented with 10% FBS and transfected with the calcium/phosphate precipitation method. Briefly, cells were plated on 10 cm dishes and transfected with 10 μg total DNA. The HEK-293 clone stably expressing frataxin^1-210 was previously described (4). The HEK-293 clone stably expressing frataxin^K147R was obtained from cultures in selection medium containing 100 μg/ml hygromycin B (Invitrogen). FRDA lymphoblasts GM15850, GM16798 and GM16241, as well control lymphoblasts GM15851, GM16241 and GM16215, were maintained in RPMI supplemented with 15% FBS. Treatments with specific ubiquitin-competing molecules were performed in 20% FBS containing medium. FRDA fibroblasts GM03816 were maintained in DMEM supplemented with 15% FBS.
(§2) Cell extracts were prepared in modified RIPA buffer (10 mM sodium phosphate pH7.2, 150 mM NaCl, 1% Na deoxycholate, 0.1% SDS, 1% Np40, 2 mM EDTA) or IP buffer (50 mM Tris-HCl, pH 7.5, 150 mM NaCl, 1% Nonidet P-40, 5 mM EDTA, 5 mM EGTA) supplemented with Complete protease inhibitor cocktail and 2 mM N-Ethylmaleimide (NEM). For immunoblotting, 100 μg of protein extract were separated on 12% SDS-PAGE, blotted onto nitrocellulose membrane and detected with specific antibodies. For in vivo detection of ubiquitin-conjugates […] and 50 ng/ml Ubiquitin-Aldehyde were added to the lysis buffer. For immunoprecipitation, 5 mg of total protein extract prepared as above were incubated for 1-2 h at 4° C. with specific antibodies, previously conjugated to Protein G-sepharose (GE Healthcare). Immunocomplexes were then resolved and analysed by SDS-PAGE. […] Densitometric analysis was performed using ImageJ software.
Cells were collected after the indicated treatments and fixed for 20 minutes in 4% paraformaldehyde at room temperature. Cells were then permeabilized and blocked in a blocking solution (3% FBS in PBS) containing 0.2% Triton, for 1 hour at room temperature. Cells were then incubated overnight at 4° C. with anti-frataxin monoclonal antibody (MAB-10485, Immunological Science) or anti-Bcl2 monoclonal antibody (sc-509, Santa Cruz) diluted 1:200 in blocking solution. Cells were then washed 3 times in PBS and incubated for 1 hour at room temperature with FITC-conjugated goat anti-mouse IgG/IgM (BD Bioscience Pharmingen) diluted 1:200 in blocking solution. After washing 3 times with PBS cells were analyzed by flow cytometry (Becton Dickinson).
HEK-293 Flp-In cells stably transfected with frataxin^1-210 were treated for the indicated times with 10 μM MG132. Total cell extracts were blotted as in A. One representative experiment out of four performed with similar results is shown in FIG. 18.
Formula III induces frataxin precursor accumulation. HEK-293 Flp-In cells stably expressing frataxin^1-210 were treated for the indicated days with 20 μM of Formula III or 10 μM MG132. Total cell extracts were resolved on SDS-PAGE and analyzed with anti-frataxin antibody, or anti-tubulin, as a loading control.
Formula III induces mature frataxin accumulation. HEK-293 Flp-In cells stably expressing frataxin^1-210 were treated and analyzed as in B. One representative experiment out of three performed with similar results is shown FIG. 5C. […]

frataxin [2] = biological target: T1, frataxin; assay: Frataxin ubiquitination in HEK-293 cells co-transfected with HA-Ub and frataxin 1-210 (IP/WB); assay type: cell-based; design: HEK-293 cells transiently transfected with frataxin^1-210 and HA-tagged ubiquitin (HA-Ub); expressed in transfected cells; host or cells: HEK-293
Procedure: as §1, with “The HEK-293 clone stably expressing frataxin^K147R was obtained from cultures in selection medium containing 100 μg/ml hygromycin B (Invitrogen). FRDA lymphoblasts GM15850, GM16798 and GM16241, as well control lymphoblasts GM15851, GM16241 and GM16215, were maintained in RPMI supplemented with 15% FBS. Treatments with specific ubiquitin-competing molecules were performed in 20% FBS containing medium. FRDA fibroblasts GM03816 were maintained in DMEM supplemented with 15% FBS.” left out
(§3) Cell extracts were prepared in modified RIPA buffer (10 mM sodium phosphate pH7.2, 150 mM NaCl, 1% Na deoxycholate, 0.1% SDS, 1% Np40, 2 mM EDTA) or IP buffer (50 mM Tris-HCl, pH 7.5, 150 mM NaCl, 1% Nonidet P-40, 5 mM EDTA, 5 mM EGTA) supplemented with Complete protease inhibitor cocktail and 2 mM N-Ethylmaleimide (NEM). For immunoblotting, 100 μg of protein extract were separated on 12% SDS-PAGE, blotted onto nitrocellulose membrane and detected with specific antibodies. […] Immunocomplexes were then resolved and analysed by SDS-PAGE. […]
FIG. 2A illustrates HEK-293 cells transiently transfected with frataxin^1-210 and HA-tagged ubiquitin (HA-Ub) (where indicated) were treated with 10 μM MG132 (MG) for 16 h. […] Total cell extracts (lanes 1-4) or anti-HA immunoprecipitates (lanes 5-8) were analyzed by WB with anti-frataxin antibody. […]
Formula III prevents frataxin ubiquitination. […] Total cell extracts (upper panel) or anti-HA immunoprecipitated proteins (lower panel) were detected with anti-frataxin antibody.

frataxin [3] = biological target: T1, frataxin; assay: Frataxin accumulation in FRDA lymphoblasts (FACS, SDS-PAGE/western blot); assay type: cell-based; conditions: FRDA lymphoblasts GM15850; 50 μM; 6 days
Procedure: as §1, with “The HEK-293 clone stably expressing frataxin^K147R was obtained from cultures in selection medium containing 100 μg/ml hygromycin B (Invitrogen). FRDA lymphoblasts GM15850, GM16798 and GM16241, as well control lymphoblasts GM15851, GM16241 and GM16215, were maintained in RPMI supplemented with 15% FBS. Treatments with specific ubiquitin-competing molecules were performed in 20% FBS containing medium. FRDA fibroblasts GM03816 were maintained in DMEM supplemented with 15% FBS.” left out
as §3
Cells were collected after the indicated treatments and fixed for 20 minutes in 4% paraformaldehyde at room temperature. […] After washing 3 times with PBS cells were analyzed by flow cytometry (Becton Dickinson).
FRDA lymphoblasts GM15850 were cultured for 6 days in the presence of 50 μM Formula IV or Formula VI. Cells were then fixed, stained with anti-frataxin antibody or anti-Bcl2, as a control, and analyzed by flow cytometry. […]

FRDA cells = assay: Tolerability by FRDA cells; assay type: cell-based, human; conditions: among the different ubiquitin-competing molecules
frataxin [4] = assay: Frataxin precursor accumulation in HeLa cells transiently transfected with frataxin 1-210 (immunoblot); assay type: cell-based, human; conditions: 10 μM proteasome inhibitor, 18 h
Procedure: Human embryonic kidney HEK-293 cells and Hela cells were maintained in DMEM supplemented with 10% FBS. HEK-293 were transfected with the calcium/phosphate precipitation method, using 20 μg total DNA (10 μg pIRES-frataxin and 10 μg HA-Ub, or corresponding empty vectors) on 10 cm dishes. Hela cells were transfected using Lipofectamine 2000 reagents (Invitrogen), according to manufacturer's instructions. […] Flp-In-HEK-293 cells (Invitrogen) are HEK-293 variants allowing the stable and isogenic integration and expression of a transfected gene. Flp-In-HEK-293 cells were maintained in DMEM supplemented with 10% FBS and transfected with the calcium/phosphate precipitation method. Briefly, cells were plated on 10 cm dishes and transfected with 10 μg total DNA. The HEK-293 clone stably expressing frataxin^1-210 was previously described (4). […]
as §3

frataxin precursor = assay: Cycloheximide chase of frataxin precursor degradation in HEK-293 Flp-In cells; assay type: cell-based, human; conditions: 100 μg/ml cycloheximide, 10 μM MG132
Procedure: as §2
HEK-293 Flp-In cells stably transfected with frataxin^1-210 (FIG. 1E) or empty vector (FIG. 1G) were treated for the indicated times with 100 μg/ml cycloheximide (CHX) in the presence or absence of 10 μM MG132 (MG). […] One representative experiment out of five performed with similar results is shown. Pre: precursor, tub: tubulin.

## O=[N+]([O-])c1cc(/C=N/NS(=O)(=O)c2ccc(F)cc2)c(O)c([N+](=O)[O-])c1 [Formula III]
Frataxin [1]; 20 μM, days, WB
  accumulation of the frataxin precursor: substantial accumulation
Frataxin [1]; 20 μM, over a longer time period, WB
  accumulation of mature frataxin: substantial accumulation
Frataxin [2]; HEK-293 co-transfected with HA-Ub and frataxin 1-210, 20 μM and 50 μM, revealed after 48 h
  ubiquitination of frataxin 1-210: efficiently prevents the ubiquitination

## O=[N+]([O-])c1cccc(/C=N/NS(=O)(=O)c2ccc(F)cc2)c1O [Formula VI]
Frataxin [3]
  frataxin accumulation by FACS analysis: discrete frataxin accumulation detectable in all cells
FRDA cells
  tolerability by FRDA cells: best tolerated
Frataxin [1]; 100 μM, 18 hours
  frataxin accumulation by WB and FACS analysis: effective in inducing frataxin accumulation

## CC(C)C[C@@H](C=O)NC(=O)[C@H](CC(C)C)NC(=O)[C@H](CC(C)C)NC(=O)OCc1ccccc1 [MG132] (Cbz-Leu-Leu-Leu-aldehyde)
Frataxin [4]
  accumulation of frataxin precursor compared to untreated cells: significantly higher amounts of precursor
Frataxin precursor; HEK-293 Flp-In empty vector
  degradation of the endogenous frataxin precursor: prevents the degradation
Frataxin precursor; HEK-293 Flp-In frataxin 1-210
  time-dependent degradation of the frataxin precursor: blocked
Frataxin [1]; 10 μM MG132, after 24 hrs
  accumulation of mature frataxin: ~2.5 fold
  accumulation of the frataxin precursor: > 15 fold
Frataxin [2]; HEK-293 co-transfected with frataxin 1-210 and HA-Ub, 10 μM MG132, 16 h
  accumulation of mono-ubiquitinated frataxin: allows the accumulation and detection of mono-ubiquitinated frataxin
Frataxin [2]; HEK-293 co-transfected with frataxin 1-210 and HA-Ub, 10 μM MG132, 16 h, frataxin IP, anti-Ub WB
  accumulation of poly-ubiquitinated frataxin: allows the accumulation and detection also of poly-ubiquitinated frataxin

## CC(=O)N[C@@H](CSC(=O)[C@]1([C@@H](O)C(C)C)NC(=O)[C@H](C)[C@@H]1O)C(=O)O [lactacystin]
Frataxin [4]
  accumulation of frataxin precursor compared to untreated cells: significantly higher amounts of precursor

— US8703749B2, “Compositions and methods for treating Friedreich's Ataxia” (priority 2009, dated 2014)
